Read-outs that look alike come from different tables or passages of the source. Square brackets hold non-standard residues; d marks the D form. Peptide text beside a SMILES is read from it.
Columns and labels:
[1] = tested on: C. glabrata clinical strains; assay: MIC, clinical yeast strains; assay type: cell-based, Candida glabrata; set-up: unit: µg/ml
Outline: (§1)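 Clinical isolates tested by broth microdilution at 5.0×10^5 cfu/ml with peptides at 0.125–128 μg/ml, incubated 20–24 h at 37° C. Bacteria were grown in Mueller Hinton broth and yeasts in potato dextrose broth. MIC is the lowest concentration showing no visible growth.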

[2] = tested on: C. quillermondiae clinical strains; assay: MIC, clinical yeast strains; assay type: cell-based, Candida quillermondiae; set-up: unit: μg/ml; conditions: C. quillermondiae clinical yeast strain 1
Outline: as §1

[3] = tested on: Candida albicans clinical strains; assay: MIC, clinical yeast strains; assay type: cell-based; set-up: unit: μg/ml
Outline: as §1

[4] = tested on: Streptococcus pneumoniae clinical strains; assay type: cell-based; set-up: Minimum inhibitory concentration: unit: μg/ml; conditions: microdilution, Muller Hinton broth-cation adjusted, 0.02% BSA, 0.2% acetic acid
Outline: as §1

[5] = tested on: Proteus mirabilis clinical strains; assay type: cell-based; set-up: Minimum inhibitory concentration: unit: μg/ml; conditions: microdilution, Muller Hinton broth-cation adjusted, 0.02% BSA, 0.2% acetic acid
Outline: as §1

[6] = tested on: Staphylococcus aureus clinical strains; assay type: cell-based; set-up: Minimum inhibitory concentration: unit: μg/ml; conditions: microdilution, Muller Hinton broth-cation adjusted, 0.02% BSA, 0.2% acetic acid
Outline: as §1

[7] = tested on: Serratia marcescens clinical strains; assay type: cell-based; set-up: Minimum inhibitory concentration: unit: μg/ml; conditions: microdilution, Muller Hinton broth-cation adjusted, 0.02% BSA, 0.2% acetic acid
Outline: as §1

[8] = tested on: Enterobacter cloacae clinical strains; assay type: cell-based; set-up: Minimum inhibitory concentration: unit: μg/ml; conditions: microdilution, Muller Hinton broth-cation adjusted, 0.02% BSA, 0.2% acetic acid
Outline: as §1

[9] = tested on: Pseudomonas aeruginosa clinical strains; assay type: cell-based; conditions: microdilution, Muller Hinton broth-cation adjusted, 0.02% BSA, 0.2% acetic acid
Outline: as §1

[10] = tested on: Klebsiella pneumoniae clinical strains; assay type: cell-based; conditions: microdilution, Muller Hinton broth-cation adjusted, 0.02% BSA, 0.2% acetic acid
Outline: as §1

[11] = tested on: Escherichia coli clinical strains; assay type: cell-based; conditions: microdilution, Muller Hinton broth-cation adjusted, 0.02% BSA, 0.2% acetic acid
Outline: as §1

[12] = tested on: C. parapsilosis clinical strains; assay: MIC, clinical yeast strains; assay type: cell-based, Candida parapsilosis; set-up: unit: µg/ml
Outline: as §1

Measured: Minimum inhibitory concentration

CC(C)C[C@@H](NC(=O)[C@@H](Cc1c[nH]c2ccccc12)NC(=O)[C@@H](Cc1ccccc1)NC(=O)[C@@H](Cc1c[nH]c2ccccc12)NC(=O)[C@@H](CCCCN)NC(=O)[C@@H](CCCNC(=N)N)NC(=O)[C@H](N)Cc1c[nH]c2ccccc12)C(=O)N[C@H](Cc1ccccc1)C(=O)N[C@H](CCCCN)C(=O)N[C@H](CCCCN)C(=O)N[C@H](CCCNC(=N)N)C(=O)O [Chain309D] (H-[dW][dR][dK][dW][dF][dW][dL][dF][dK][dK][dR]-OH)
>128: [5]; Proteus mirabilis clinical strain 1 | [5]; Proteus mirabilis clinical strain 2 | [5]; Proteus mirabilis clinical strain 3 | [5]; Proteus mirabilis clinical strain 4 | [5]; Proteus mirabilis clinical strain 5 | [7]; Serratia marcescens clinical strain 1 | [7]; Serratia marcescens clinical strain 2 | [7]; Serratia marcescens clinical strain 3 | [7]; Serratia marcescens clinical strain 4 | [7]; Serratia marcescens clinical strain 5 | [8]; Enterobacter cloacae clinical strain 1 | [10]; Klebsiella pneumoniae clinical strain 3
32: [1]; C. glabrata clinical yeast strain 1 | [3]; Candida albicans clinical yeast strain 1 | [3]; Candida albicans clinical yeast strain 2 | [3]; Candida albicans clinical yeast strain 5 | [8]; Enterobacter cloacae clinical strain 5 | [9]; Pseudomonas aeruginosa clinical strain 2 | [9]; Pseudomonas aeruginosa clinical strain 4 | [10]; Klebsiella pneumoniae clinical strain 2 | [10]; Klebsiella pneumoniae clinical strain 4 | [11]; Escherichia coli clinical strain 2 | [11]; Escherichia coli clinical strain 4 | [12]; C. parapsilosis clinical yeast strain 3
0.5: [11]; Escherichia coli clinical strain 1
128: [1]; C. glabrata clinical yeast strain 4 | [8]; Enterobacter cloacae clinical strain 2 | [10]; Klebsiella pneumoniae clinical strain 1 | [10]; Klebsiella pneumoniae clinical strain 5
16: [3]; Candida albicans clinical yeast strain 3 | [3]; Candida albicans clinical yeast strain 4 | [6]; Staphylococcus aureus clinical strain 2 | [9]; Pseudomonas aeruginosa clinical strain 1 | [9]; Pseudomonas aeruginosa clinical strain 3 | [11]; Escherichia coli clinical strain 3 | [11]; Escherichia coli clinical strain 5 | [12]; C. parapsilosis clinical yeast strain 4
4: [1]; C. glabrata clinical yeast strain 3
64: [1]; C. glabrata clinical yeast strain 2 | [4]; Streptococcus pneumoniae clinical strain 1 | [4]; Streptococcus pneumoniae clinical strain 2 | [4]; Streptococcus pneumoniae clinical strain 3 | [4]; Streptococcus pneumoniae clinical strain 4 | [4]; Streptococcus pneumoniae clinical strain 5 | [8]; Enterobacter cloacae clinical strain 3 | [8]; Enterobacter cloacae clinical strain 4 | [12]; C. parapsilosis clinical yeast strain 1 | [12]; C. parapsilosis clinical yeast strain 2
8: [2] | [6]; Staphylococcus aureus clinical strain 1 | [6]; Staphylococcus aureus clinical strain 3 | [6]; Staphylococcus aureus clinical strain 4 | [6]; Staphylococcus aureus clinical strain 5 | [9]; Pseudomonas aeruginosa clinical strain 5
